US10857137B2, “Methods for the administration of certain VMAT2 inhibitors” (Neurocrine Biosciences, Inc., priority 2017, dated 2020)
Entries after “also recorded” stand apart in the source; their conditions may differ.

Columns and labels:
[1] = system: more than 80 targets including GPCRs, cell-surface monoamine transporters, and ion channels including HERG; test: Multi-target activity screen (Cerep screen), whole panel; type: binding; conditions: receptors
human VMAT1 transporter = biological target: T1, human VMAT1 transporter (Homo sapiens, UniProt P54219); test: Uptake in cells expressing VMAT1; type: cell-based; conditions: test compounds at concentrations up to 10 μM
T1 construct: expressed in transfected cells
T1 sequence (P54219 1-525): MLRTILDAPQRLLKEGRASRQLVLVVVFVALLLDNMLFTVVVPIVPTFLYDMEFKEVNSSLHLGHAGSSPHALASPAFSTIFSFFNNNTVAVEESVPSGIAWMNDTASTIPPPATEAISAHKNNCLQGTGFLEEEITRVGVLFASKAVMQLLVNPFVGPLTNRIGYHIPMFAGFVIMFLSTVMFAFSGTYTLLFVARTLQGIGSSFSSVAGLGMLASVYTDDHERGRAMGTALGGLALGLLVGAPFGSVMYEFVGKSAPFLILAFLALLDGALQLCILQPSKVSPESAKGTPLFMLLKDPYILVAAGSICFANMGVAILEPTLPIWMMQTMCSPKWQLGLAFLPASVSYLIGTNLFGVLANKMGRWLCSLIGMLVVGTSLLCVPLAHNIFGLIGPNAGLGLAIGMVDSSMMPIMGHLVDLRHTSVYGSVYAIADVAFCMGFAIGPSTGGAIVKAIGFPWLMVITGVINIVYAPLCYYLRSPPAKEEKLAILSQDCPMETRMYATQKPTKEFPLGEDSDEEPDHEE

[2] = Plasma concentrations of circulating metabolites of VBZ; type: in vivo; conditions: metabolites formed from VBZ
[3] = system: ptosis (adrenergic activation); test: Ptosis, in vivo surrogate measure
[4] = system: prolactin release (D2 dopamine receptor); test: Serum prolactin, in vivo surrogate measure
rat and human VMAT2 = test: VMAT2 [3H]-DHTBZ binding, summary statements over rat and human tissues; conditions: rat striatum and human platelet homogenates
Method: The affinity of each compound was measured by inhibition of [^3H]-DHTBZ binding to rat forebrain membranes. […] The affinity of each compound was measured by inhibition of [^3H]-DHTBZ binding to either human platelets or rat striatal membranes.

[5] = system: dopamine, serotonin and adrenergic receptor subtypes; test: Detailed radioligand binding assays, monoamine receptors; conditions: radioligand binding assays and broad panel screen

In the case of `COc1cc2c(cc1OC)[C@H]1C[C@@H](OC(=O)[C@@H](N)C(C)(C)O)[C@H](CC(C)C)CN1CC2` [NBI-136110], the “affinity for more than 80 binding sites, in words” value (“affinity” below) [1] is reported as “little to no affinity”, the “inhibition of uptake through VMAT1, in words” value (human VMAT1 transporter) is reported as “no significant inhibitory activity; also recorded: no significant effect” and the “decline of plasma concentrations (half-lives), in words” value [2] is reported as “half-lives similar to VBZ”.

For `COc1cc2c(cc1OC)[C@H]1C[C@@H](O)[C@H](CC(C)C)CN1CC2` [R,R,R-DHTBZ, (2R,3R,11bR)-3-isobutyl-9,10-dimethoxy-1,3,4,6,7,11b-hexahydro-2H-pyrido[2,1-a]isoquinolin-2-ol], the “induction of ptosis, in words” value [3] was “induced ptosis in an equivalent manner”, the “increase in serum prolactin levels, in words” value (from here on “increase”) [4] was “induced a similar increase in serum prolactin levels as TBZ” and the “VMAT2 inhibition, in words” value (rat and human VMAT2) was “most potent inhibitor of VMAT2”. For the same molecule, the “affinity” value [1] was “little to no affinity”, the “inhibition of uptake through VMAT1, in words” value (human VMAT1 transporter) was “no significant inhibitory activity; also recorded: no significant effect” and the “decline of plasma concentrations (half-lives), in words” value [2] was “half-lives similar to VBZ”.

In the case of `COc1cc2c(cc1OC)[C@@H]1C[C@@H](O)[C@@H](CC(C)C)CN1CC2` [R,S,S-DHTBZ, reference compound], the “interaction with D1 and D2 receptors, in words” value [5] is reported as “interact with D1 and D2 receptors”.

In the case of `COc1cc2c(cc1OC)[C@@H]1C[C@H](O)[C@@H](CC(C)C)CN1CC2` [S,S,S-DHTBZ, reference compound], the “interaction with D1 and D2 receptors, in words” value [5] is reported as “interact with D1 and D2 receptors”.

For `COc1cc2c(cc1OC)C1CC(=O)C(CC(C)C)CN1CC2` (stereo not shown) [TBZ, reference compound], the “induction of ptosis, in words” value [3] was “induced ptosis in an equivalent manner”, the “increase” value [4] was “increase in serum prolactin levels” and the “inhibition of uptake through VMAT1, in words” value (human VMAT1 transporter) was “no significant inhibitory activity; also recorded: no significant effect”.

For `COc1cc2c(cc1OC)[C@H]1C[C@@H](OC(=O)[C@@H](N)C(C)C)[C@H](CC(C)C)CN1CC2` [Valbenazine, (S)-2-amino-3-methyl-butyric acid (2R,3R,11bR)-3-isobutyl-9,10-dimethoxy-1,3,4,6,7,11b-hexahydro-2H-pyrido[2,1-a]isoquinolin-2-yl ester], the “induction of ptosis, in words” value [3] was “induced ptosis in an equivalent manner”, the “increase” value [4] was “to a lesser extent” and the “affinity” value [1] was “little to no affinity”. For the same molecule, the “inhibition of uptake through VMAT1, in words” value (human VMAT1 transporter; listed as VBZ) was “no significant inhibitory activity; also recorded: no significant effect”.

In the case of `COC(=O)[C@H]1[C@H]2C[C@@H]3c4[nH]c5cc(OC)ccc5c4CCN3C[C@H]2C[C@@H](OC(=O)c2cc(OC)c(OC)c(OC)c2)[C@@H]1OC` [reserpine, reference compound], the “inhibition of uptake through VMAT1, in words” value (human VMAT1 transporter) is reported as “substantially inhibited uptake through VMAT1”.
